Source: US20250051347A1, “BIFUNCTIONAL CHIMERIC HETEROCYCLIC COMPOUND AND USE THEREOF AS ANDROGEN RECEPTOR DEGRADER” (Hinova Pharmaceuticals, Inc., priority 2021, published 2025)

Molecular target: T1, androgen receptor (AR) splicing variant AR-v7 (Homo sapiens, UniProt P10275)
T1 construct: The degradation activity of compounds on AR-v7 in 22RV1 cells; host or cells: 22RV1 cells
T1 sequence (P10275 1-644 isoform P10275-3): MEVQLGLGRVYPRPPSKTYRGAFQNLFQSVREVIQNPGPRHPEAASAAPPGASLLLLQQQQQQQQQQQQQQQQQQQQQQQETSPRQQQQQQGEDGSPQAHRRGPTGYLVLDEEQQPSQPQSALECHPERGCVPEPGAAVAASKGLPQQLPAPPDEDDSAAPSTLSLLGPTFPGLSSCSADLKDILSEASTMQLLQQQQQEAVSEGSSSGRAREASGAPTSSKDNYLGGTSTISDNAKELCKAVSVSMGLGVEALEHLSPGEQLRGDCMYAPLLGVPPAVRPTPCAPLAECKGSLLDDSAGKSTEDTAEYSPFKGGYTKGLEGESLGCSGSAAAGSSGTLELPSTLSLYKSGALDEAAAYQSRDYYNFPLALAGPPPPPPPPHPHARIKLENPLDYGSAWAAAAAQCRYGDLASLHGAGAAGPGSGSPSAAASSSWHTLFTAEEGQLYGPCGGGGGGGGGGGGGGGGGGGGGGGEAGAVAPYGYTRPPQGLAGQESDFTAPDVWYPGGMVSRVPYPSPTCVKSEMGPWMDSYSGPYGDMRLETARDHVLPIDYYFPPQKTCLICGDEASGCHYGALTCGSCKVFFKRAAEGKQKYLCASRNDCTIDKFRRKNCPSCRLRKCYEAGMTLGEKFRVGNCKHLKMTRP
Experiment: Degradation activity on androgen receptor splicing variant AR-v7 in 22RV1 cells (ELISA)
Format: cell-based
Conditions: AR-v7 degradation in 22RV1 cells, 48 h, class symbols

Row | Structure (SMILES) | DC50
1 | CC(C)(c1ccc(OCc2ccnc(N3CC4(COC4)C3)n2)cc1)c1ccc(O[C@H]2CC[C@@H](Nc3ccc4c(c3)C(=O)N(C3CCC(=O)NC3=O)C4=O)CC2)cc1 (stereo partly shown) [Example 153, 5-(((1s,4s)-4-(4-(2-(4-((2-(2-oxa-6-azaspiro[3.3]heptan-6-yl)pyrimidin-4-yl)methoxy)phenyl)propan-2-yl)phenoxy)cyclohexyl)amino)-2-(2,6-dioxopyridin-3-yl)isoindolin-1,3-dione] | 101 to 1000 nM
2 | Cc1nc(-c2ncc(Oc3ccc(C(C)(C)c4ccc(N5CCC56CN(c5ccc7c(c5)C(=O)N(C5CCC(=O)NC5=O)C7=O)C6)cc4)cc3)cn2)no1 (stereo not shown) [Example 179, 2-(2,6-dioxopiperidin-3-yl)-5-(1-(4-(2-(4-((2-(5-methyl-1,2,4-oxadiazol-3-yl)pyrimidin-5-yl)oxy)phenyl)propan-2-yl)phenyl)-1,6-diazaspiro[3.3]heptan-6-yl)isoindolin-1,3-dione] | 101 to 1000 nM
3 | CN(C)C(=O)c1noc(COc2ccc(C(C)(C)c3ccc(OCCCNc4ccc5c(c4)C(=O)N(C4CCC(=O)NC4=O)C5=O)cc3)cc2)n1 (stereo not shown) [Example 180, 5-((4-(2-(4-(3-((2-(2,6-dioxopiperidin-3-yl)-1,3-dioxoisoindolin-5-yl)amino)propoxy)phenyl)propan-2-yl)phenoxy)methyl)-N,N-dimethyl-1,2,4-oxadiazol-3-carbonylamine] | 1000 to 5000 nM
4 | COC(=O)c1nccc(COc2ccc(C(C)(C)c3ccc(OCCCNc4ccc5c(c4)C(=O)N(C4CCC(=O)NC4=O)C5=O)cc3)cc2)n1 (stereo not shown) [Example 184] | 1000 to 5000 nM
5 | Cc1nc(-c2ccc(Oc3ccc(C(C)(C)c4ccc(O[C@H]5C[C@@H](Nc6ccc7c(c6)C(=O)N(C6CCC(=O)NC6=O)C7=O)C5)cc4)cc3)nc2)no1 (stereo partly shown) [Example 213] | 11 to 100 nM
6 | CC(C)(c1ccc(Oc2ccc(N3CC4(COC4)C3)nc2)cc1)c1ccc(O[C@H]2C[C@H](Nc3ccc4c(c3)C(=O)N(C3CCC(=O)NC3=O)C4=O)C2)cc1 (stereo partly shown) [Example 214] | 11 to 100 nM
7 | CC(C)(c1ccc(Oc2cnc(N)nn2)cc1)c1ccc(O[C@H]2C[C@H](Nc3ccc4c(c3)C(=O)N(C3CCC(=O)NC3=O)C4=O)C2)cc1 (stereo partly shown) [Example 215] | 11 to 100 nM
8 | Cc1nnc(-c2ccc(Oc3ccc(C(C)(C)c4ccc(O[C@H]5C[C@H](Nc6ccc7c(c6)C(=O)N(C6CCC(=O)NC6=O)C7=O)C5)cc4)cc3)nc2)o1 (stereo partly shown) [Example 216] | 11 to 100 nM
9 | Cc1nc(COc2ccc(C(C)(C)c3ccc(OCCCNc4cccc5c4C(=O)N(C4CCC(=O)NC4=O)C5=O)cc3)cc2)cs1 (stereo not shown) [Example 224, 2-(2,6-dioxopiperidin-3-yl)-4-((3-(4-(2-(4-((2-methylthiazol-4-yl)methoxy)phenyl)propan-2-yl)phenoxy)propyl)amino)isoindolin-1,3-dione] | 101 to 1000 nM
10 | CN1CCC(Oc2nccc(COc3ccc(C(C)(C)c4ccc(O[C@H]5C[C@@H](Nc6ccc7c(c6)C(=O)N(C6CCC(=O)NC6=O)C7=O)C5)cc4)cc3)n2)CC1 (stereo partly shown) [Example 234] | 11 to 100 nM
11 | CC(C)(c1ccc(OCc2ccnc(OC3CCN(C(=O)OCc4ccccc4)CC3)n2)cc1)c1ccc(O[C@H]2C[C@@H](Nc3ccc4c(c3)C(=O)N(C3CCC(=O)NC3=O)C4=O)C2)cc1 (stereo partly shown) [Example 235] | 101 to 1000 nM
12 | CC(C)(c1ccc(OCc2ccnc(OC3CCNCC3)n2)cc1)c1ccc(O[C@H]2C[C@@H](Nc3ccc4c(c3)C(=O)N(C3CCC(=O)NC3=O)C4=O)C2)cc1 (stereo partly shown) [Example 236] | 11 to 100 nM

Results, then the molecule that gave them:

Row | DC50 | Structure (SMILES)
13 | 11 to 100 nM | CC(C)(c1ccc(Oc2ncc(F)c(N3CC4(COC4)C3)n2)cc1)c1ccc(O[C@H]2C[C@@H](Nc3ccc4c(c3)C(=O)N(C3CCC(=O)NC3=O)C4=O)C2)cc1 (stereo partly shown) [Example 157]
14 | 11 to 100 nM | CC(C)(c1ccc(Oc2nc(N3CC4(COC4)C3)ncc2F)cc1)c1ccc(O[C@H]2C[C@@H](Nc3ccc4c(c3)C(=O)N(C3CCC(=O)NC3=O)C4=O)C2)cc1 (stereo partly shown) [Example 158]
15 | 11 to 100 nM | CC(C)(c1ccc(Oc2cncc(N3CC4(COC4)C3)n2)cc1)c1ccc(O[C@H]2C[C@@H](Nc3ccc4c(c3)C(=O)N(C3CCC(=O)NC3=O)C4=O)C2)cc1 (stereo partly shown) [Example 159]
16 | 11 to 100 nM | CC(C)(c1ccc(Oc2ccnc(-n3ccnn3)c2)cc1)c1ccc(O[C@H]2C[C@H](Nc3ccc4c(c3)C(=O)N(C3CCC(=O)NC3=O)C4=O)C2)cc1 (stereo partly shown) [Example 163, 5-((1r,3r)-3-(4-(2-(2-(4-((1H-1,2,3-triazol-2-yl)pyridin-4-yl)oxy)phenyl)propan-2-ylphenoxy)cyclobutyl)amino)-2-(2,6-dioxopiperidin-3-yl)isoindolin-1,3-dione]
17 | 11 to 100 nM | CC(C)(c1ccc(Oc2cc(-n3nccn3)ccn2)cc1)c1ccc(O[C@H]2C[C@H](Nc3ccc4c(c3)C(=O)N(C3CCC(=O)NC3=O)C4=O)C2)cc1 (stereo partly shown) [Example 165, 5-(((1r,3r)-3-(4-(2-((4-(2H-1,2,3-triazol-2-yl)pyridin-2-yl)oxy)phenyl)propan-2-ylphenoxy)cyclobutyl)amino)-2-(2,6-dioxopyridin-3-yl)isoindol-1,3-dione]
18 | 11 to 100 nM | Cc1nc(-c2cc(Oc3ccc(C(C)(C)c4ccc(O[C@H]5C[C@H](Nc6ccc7c(c6)C(=O)N(C6CCC(=O)NC6=O)C7=O)C5)cc4)cc3)ccn2)no1 (stereo partly shown) [Example 167, 2-(2,6-dioxopyridin-3-yl)-5-(((1r,3r)-3-(4-(2-((4-(2-(5-methyl-1,2,4-oxadiazol-3-yl)pyridin-4-yl)oxy)phenyl)propan-2-yl)phenoxy)cyclobutyl)amino) isoindolin-1,3-dione]
19 | 11 to 100 nM | Cc1nc(-c2cc(Oc3ccc(C(C)(C)c4ccc(O[C@H]5C[C@@H](Nc6ccc7c(c6)C(=O)N(C6CCC(=O)NC6=O)C7=O)C5)cc4)cc3)ccn2)no1 (stereo partly shown) [Example 174, 2-(2,6-dioxopyridin-3-yl)-5-(((1s,3s)-3-(4-(2-(4-((2-(5-methyl-1,2,4-oxadiazol-3-yl)pyridin-4-yl)oxy)phenyl)propan-2-yl)phenoxy)cyclobutyl)amino) isoindolin-1,3-dione]
20 | 11 to 100 nM | CN1CCN(c2ncc3c(n2)CN(c2ccc(C(C)(C)c4ccc(O[C@H]5C[C@@H](Nc6ccc7c(c6)C(=O)N(C6CCC(=O)NC6=O)C7=O)C5)cc4)cc2)CC3)CC1 (stereo partly shown) [Example 191]
21 | 11 to 100 nM | CN1CCN(c2ncc3c(n2)CN(c2ccc(C(C)(C)c4ccc(O[C@H]5C[C@H](Nc6ccc7c(c6)C(=O)N(C6CCC(=O)NC6=O)C7=O)C5)cc4)cc2)CC3)CC1 (stereo partly shown) [Example 192, 2-(2,6-dioxopiperidin-3-yl)-5-((1r,3r)-3-(4-(2-(2-(4-methylpiperazin-1-yl)-5,8-dihydropyrido[3,4-d]pyrimidin-7(6H)-phenyl)propan-2-ylphenoxy)cyclobutyl)amino)isoindolin-1,3-dione]
22 | 11 to 100 nM | Cc1nccc(Oc2ccc(C(C)(C)c3ccc(O[C@H]4C[C@@H](Nc5ccc6c(c5)C(=O)N(C5CCC(=O)NC5=O)C6=O)C4)cc3)cc2)n1 (stereo partly shown) [Example 198]
23 | 11 to 100 nM | CC(C)(c1ccc(OCc2nc(N3CC4(COC4)C3)ncc2F)cc1)c1ccc(O[C@H]2C[C@@H](Nc3ccc4c(c3)C(=O)N(C3CCC(=O)NC3=O)C4=O)C2)cc1 (stereo partly shown) [Example 199]
24 | 11 to 100 nM | CC(C)(c1ccc(OCc2nc(N3CC4(COC4)C3)ncc2Cl)cc1)c1ccc(O[C@H]2C[C@@H](Nc3ccc4c(c3)C(=O)N(C3CCC(=O)NC3=O)C4=O)C2)cc1 (stereo partly shown) [Example 201, 5-((1s,3s)-3-(4-(2-(4-((5-chloro-2-(2-oxa-6-azaspiro[3.3]heptan-6-yl)pyrimidin-4-methoxy)phenyl)propan-2-yl)phenoxy)cyclobutyl)amino)-2-(2,6-dioxopiperidin-3-yl)isoindolin-1,3-dione]
25 | 11 to 100 nM | CC(C)(c1ccc(OCc2nc(N3CC4(COC4)C3)ncc2Cl)cc1)c1ccc(O[C@H]2C[C@H](Nc3ccc4c(c3)C(=O)N(C3CCC(=O)NC3=O)C4=O)C2)cc1 (stereo partly shown) [Example 202, 5-((1r,3r)-3-(4-(2-(4-((5-chloro-2-(2-oxa-6-azaspiro[3.3]heptan-6-yl)pyrimidin-4-methoxy)phenyl)propan-2-yl)phenoxy)cyclobutyl)amino)-2-(2,6-dioxopiperidin-3-yl)isoindolin-1,3-dione]
26 | 11 to 100 nM | Cc1cnc(N2CC3(COC3)C2)nc1COc1ccc(C(C)(C)c2ccc(O[C@H]3C[C@@H](Nc4ccc5c(c4)C(=O)N(C4CCC(=O)NC4=O)C5=O)C3)cc2)cc1 (stereo partly shown) [Example 203]
27 | 11 to 100 nM | Cn1cc(-c2ccc(Oc3ccc(C(C)(C)c4ccc(O[C@H]5C[C@H](Nc6ccc7c(c6)C(=O)N(C6CCC(=O)NC6=O)C7=O)C5)cc4)cc3)cn2)cn1 (stereo partly shown) [Example 205]
28 | 11 to 100 nM | CC(C)(c1ccc(Oc2ccc(-n3cccn3)nc2)cc1)c1ccc(O[C@H]2C[C@H](Nc3ccc4c(c3)C(=O)N(C3CCC(=O)NC3=O)C4=O)C2)cc1 (stereo partly shown) [Example 208]
29 | 11 to 100 nM | Cc1nc(-c2ncc(Oc3ccc(C(C)(C)c4ccc(O[C@H]5C[C@H](Nc6ccc7c(c6)C(=O)N(C6CCC(=O)NC6=O)C7=O)C5)cc4)cc3)cc2C(F)(F)F)no1 (stereo partly shown) [Example 211]

Same assay, conditions: AR-v7 degradation in 22RV1 cells, 48 h, numeric values

Row | DC50 | Structure (SMILES)
30 | > 10000 nM | CC(C)(c1ccc(OCCCCCCCCOCCCCNc2ccc3c(c2)C(=O)N(C2CCC(=O)NC2=O)C3=O)cc1)c1ccc(OCc2ccnc(Nc3ncco3)n2)cc1 (stereo not shown) [Example 226]
31 | > 10000 nM | C=CC(=O)Nc1nccc(COc2ccc(C(C)(C)c3ccc(OCCCCCCCCOCCN4CCN(c5ccc6c(c5)C(=O)N(C5CCC(=O)NC5=O)C6=O)CC4)cc3)cc2)n1 (stereo not shown) [Example 227]
